Here are results for four compounds from PMC6882824, “Engineering of chimeric peptides as antagonists for the G protein-coupled receptor, RXFP4” (Scientific Reports, 2019).

Experiment [1] deals with T1, RXFP4 (Homo sapiens, UniProt Q8TDU9). Put plainly: Competition binding in CHO-K1-RXFP4 cells (Eu-DTPA-mINSL5). Also noted: expressed in transfected cells; host or cells: CHO-K1 (ATCC), stably transfected. As to the method:
(§1) Chinese hamster ovary CHO-K1 cells (sourced from American Type Culture Collection (ATCC), Maryland, USA) stably transfected with RXFP3[33] or RXFP4[9] were plated out onto precoated poly-L-lysine 96-well view plates at a density of 50 000 cells per well. Medium was aspirated off and the cells were washed with phosphate-buffered saline (PBS) before competition binding assays were performed with 5 nM Eu-H3B1–22R[34] (RXFP3 ligand) or 5 nM Eu-DTPA-mINSL5[9] (RXFP4 ligand) as previously described. Competition binding curves were performed in triplicate and each experiment was performed independently at least three times. Fluorescent measurements were carried out on a BMG POLARstar plate reader (BMG Labtech, Melbourne, Australia. Pooled data are presented as mean ± S.E of specific binding and are fitted using one-site binding curve in GraphPad Prism version 8 (GraphPad Inc., San Diego, USA). Statistical analyses were conducted using one-way analysis of variance with uncorrected Fisher’s least significant difference (LSD) post-hoc analysis in GraphPad Prism version 8.

In experiment [2] the target is T2, RXFP3 (Homo sapiens, UniProt Q9NSD7).
T2 construct: expressed in transfected cells; host or cells: CHO-K1 (ATCC), stably transfected
T2 sequence (Q9NSD7 1-469): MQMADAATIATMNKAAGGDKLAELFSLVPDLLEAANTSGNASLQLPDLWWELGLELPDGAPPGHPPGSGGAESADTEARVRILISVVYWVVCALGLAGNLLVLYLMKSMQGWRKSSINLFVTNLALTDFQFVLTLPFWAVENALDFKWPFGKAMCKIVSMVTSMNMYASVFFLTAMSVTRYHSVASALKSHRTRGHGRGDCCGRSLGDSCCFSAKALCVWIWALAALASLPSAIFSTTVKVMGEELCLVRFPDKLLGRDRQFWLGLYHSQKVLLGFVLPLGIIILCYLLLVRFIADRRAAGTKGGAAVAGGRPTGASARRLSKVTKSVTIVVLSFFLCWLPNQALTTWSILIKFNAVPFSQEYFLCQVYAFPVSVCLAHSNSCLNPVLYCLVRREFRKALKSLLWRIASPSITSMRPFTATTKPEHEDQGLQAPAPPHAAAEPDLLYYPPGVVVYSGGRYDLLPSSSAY
Put plainly: Competition binding in CHO-K1-RXFP3 cells (Eu-H3B1-22R). As to the method:
as §1

In experiment [3] the target is T2, RXFP3. Put plainly: cAMP antagonist assay against 10 nM analogue 2 in CHO-K1-RXFP3 cells. As to conditions: for Emax: SEM, read-out: RXFP3 Emax (antagonist efficacy). Format: cell-based. The procedure: (§2) The peptides were tested for their ability to inhibit forskolin induced cAMP activity in CHO-K1-RXFP3 or CHO-K1-RXFP4 cells transfected with a pCRE (cAMP Response Element) β-galactosidase reporter plasmid as previously described[9],[34]. For agonist assays cells were stimulated with forskolin (5 µM for RXFP3, 1 µM for RXFP4) plus or minus increasing concentrations of each peptide for 6 hours. For antagonist assays cells were stimulated with forskolin as in agonist assays plus increasing concentrations of each peptide for 10 minutes followed by stimulation with agonist at an ~EC80 concentration for a further 6 hours (10 nM Analogue 2 for RXFP3 and 16.6 nM Analogue 13 for RXFP4). Each peptide was tested in triplicate and each experiment was performed independently at least three times. Agonist data was expressed as the % Forskolin activity whereby 100% was defined as Forskolin alone and 0% as maximum agonist stimulation (1 µM Analogue 2 for RXFP3 and 1 µM Analogue 13 for RXFP4). […] Data were analysed and plotted using GraphPad PRISM 8 and are expressed as the mean ± SEM of the pooled data. Statistical analysis was conducted using one-way ANOVA with Uncorrected Fisher’s LSD post-hoc analysis in GraphPad Prism version 8.

Experiment [4] has as its target T1, RXFP4. Put plainly: cAMP antagonist assay against 16.6 nM analogue 13 in CHO-K1-RXFP4 cells. The experiment is classed as cell-based. Set-up: expressed in transfected cells; host or cells: CHO-K1 (ATCC), stably transfected. The note with it: for Emax: SEM, read-out: RXFP4 Emax (antagonist efficacy). The procedure: as §2
Experiment [5] deals with T1, RXFP4. Put plainly: cAMP agonist assay (inhibition of forskolin-induced cAMP, pCRE β-galactosidase reporter) in CHO-K1-RXFP4 cells. Format: cell-based. Set-up: expressed in transfected cells; host or cells: CHO-K1 (ATCC), stably transfected. The note with it: CHO-K1-RXFP4 cells, inhibition of 1 µM forskolin-induced cAMP, 6 hours; mean ± SEM, n in cell. The procedure: as §2

In experiment [6] the target is T2, RXFP3. Put plainly: cAMP agonist assay (inhibition of forskolin-induced cAMP, pCRE β-galactosidase reporter) in CHO-K1-RXFP3 cells. The note with it: CHO-K1-RXFP3 cells, inhibition of 5 µM forskolin-induced cAMP, 6 hours; mean ± SEM, n in cell. Format: cell-based. As to the method: as §2
Setting [7] is: CHO-K1 cells stably transfected with RXFP4, competition with 5 nM Eu-DTPA-mINSL5, read-out: RXFP4 Binding Ki.
Setting [8] is: CHO-K1 cells stably transfected with RXFP3, competition with 5 nM Eu-H3B1-22R, read-out: RXFP3 Binding Ki.
Setting [9] is: CHO-K1-RXFP4 cells, block of 16.6 nM analogue 13, read-out: RXFP4 Antagonist potency IC50.
The mark [10] stands for this setting: CHO-K1-RXFP3 cells, peptide 10 minutes, then 10 nM analogue 2 for 6 hours, 5 µM forskolin, mean ± SEM, read-out: RXFP3 Antagonist potency pIC50 (converted).

The structures appear in SMILES notation. Where two headings read alike, the source gives them in different places. Bridge positions count the residues as written; N and C are the ends. Peptide text beside a SMILES is read from it. I, II: the chains in the order shown.

The term Ki denotes a dissociation constant, usually derived from enzyme kinetics or from competition with a known ligand. The Emax is the maximal effect, on the per cent scale that the assay sets.

T1 sequence (Q8TDU9 whole entry): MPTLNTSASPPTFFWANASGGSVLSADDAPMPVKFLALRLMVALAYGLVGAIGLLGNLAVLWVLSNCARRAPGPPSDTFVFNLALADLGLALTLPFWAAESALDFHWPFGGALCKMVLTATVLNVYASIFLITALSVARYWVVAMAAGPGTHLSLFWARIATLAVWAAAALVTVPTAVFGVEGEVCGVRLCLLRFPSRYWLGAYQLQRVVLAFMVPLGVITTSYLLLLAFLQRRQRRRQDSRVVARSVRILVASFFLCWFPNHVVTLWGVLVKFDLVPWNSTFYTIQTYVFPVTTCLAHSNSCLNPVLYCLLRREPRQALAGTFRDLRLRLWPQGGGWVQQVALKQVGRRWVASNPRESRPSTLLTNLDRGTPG

In the case of `CC[C@H](C)[C@@H]1NC(=O)[C@H](Cc2ccccc2)NC(=O)[C@H](CCC(=O)O)NC(=O)[C@H](CC(C)C)NC(=O)CNC(=O)[C@@H](NC(=O)[C@H](CC(C)C)NC(=O)[C@H](CCCNC(=N)N)NC(=O)[C@@H](NC(=O)CNC(=O)[C@H](Cc2ccc(O)cc2)NC(=O)[C@@H]2CCCN2C(=O)[C@H](C)NC(=O)[C@H](C)NC(=O)[C@@H](N)CCCNC(=N)N)C(C)C)CSSC[C@@H]2NC(=O)[C@@H](NC(=O)[C@H](CC(C)C)NC(=O)[C@@H](NC(=O)[C@H](CCC(N)=O)NC(=O)[C@H](CC(C)C)NC(=O)[C@H](CC(=O)O)NC(=O)[C@@H]3CCC(=O)N3)[C@@H](C)O)CSSC[C@H](NC(=O)CNC(=O)[C@H](CC(=O)O)NC(=O)[C@H]([C@@H](C)O)NC2=O)C(=O)N[C@@H](CO)C(=O)N[C@@H](CCSC)C(=O)N[C@@H]([C@@H](C)O)C(=O)N[C@@H](CC(=O)O)C(=O)N[C@@H](CC(C)C)C(=O)N[C@@H](CO)C(=O)N[C@@H](C)C(=O)N[C@@H](CC(C)C)C(=O)N[C@H](C(=O)O)CSSC[C@@H](C(=O)N[C@@H](CCCNC(=N)N)C(=O)O)NC(=O)[C@H]([C@@H](C)O)NC(=O)[C@H](Cc2ccccc2)NC(=O)[C@H]([C@@H](C)CC)NC(=O)[C@H](C(C)C)NC(=O)[C@H](C)NC(=O)[C@H](CCCNC(=N)N)NC1=O` [Analogue 14], the inhibitory constant (Ki) at RXFP4 [1] (setting [7]) and on RXFP3 [2] (setting [8]) was 24 nM throughout. The IC50 came out at 263 nM on RXFP3 [3] (CHO-K1-RXFP3 cells, block of 10 nM analogue 2, read-out: RXFP3 Antagonist potency IC50) and 331 nM at RXFP4 [4] (setting [9]). For the same compound, the results for the Emax at RXFP3 [3] and on RXFP4 [4] were 66.5 ± 14.8% and 37.3 ± 7.6%, respectively. Further, the “RXFP4 Activity pEC50” value on RXFP4 [5] is on record as “Weak partial agonist (6)”. Also, the “RXFP3 Activity pEC50” value at RXFP3 [6] is “No activity (3)”.
As to `CC[C@H](C)[C@@H]1NC(=O)[C@H](Cc2ccccc2)NC(=O)[C@H](CCC(=O)O)NC(=O)[C@H](CCCNC(=N)N)NC(=O)CNC(=O)[C@@H](NC(=O)[C@H](CC(C)C)NC(=O)[C@H](CCCNC(=N)N)NC(=O)[C@@H](NC(=O)CNC(=O)[C@H](Cc2ccc(O)cc2)NC(=O)[C@@H]2CCCN2C(=O)[C@H](C)NC(=O)[C@H](C)NC(=O)[C@@H](N)CCCNC(=N)N)C(C)C)CSSC[C@H](N)C(=O)N[C@@H]([C@@H](C)O)C(=O)N[C@@H](CC(=O)O)C(=O)NCC(=O)N[C@@H](C)C(=O)N[C@@H](CO)C(=O)N[C@@H](CCSC)C(=O)N[C@@H](CCCCN)C(=O)N[C@@H](CC(=O)O)C(=O)N[C@@H](CC(C)C)C(=O)N[C@@H](CO)C(=O)N[C@@H](C)C(=O)N[C@@H](CC(C)C)C(=O)N[C@H](C(=O)O)CSSC[C@@H](C(=O)N[C@@H](CCCNC(=N)N)C(=O)O)NC(=O)[C@H]([C@@H](C)O)NC(=O)[C@H](Cc2ccccc2)NC(=O)[C@H]([C@@H](C)CC)NC(=O)[C@H](C(C)C)NC(=O)[C@H](C)NC(=O)[C@H](CCCNC(=N)N)NC1=O` [Analogue 15] (I: H-RAAPYGVRLCGREFIRAVIFTCR-OH / II: H-CTDGASMKDLSALC-OH; disulfide I:10-II:1, I:22-II:14), the Ki at RXFP4 [1] (setting [7]) was 22.9 nM; on RXFP3 [2] (setting [8]), 15.5 nM. For the same compound, the IC50 at RXFP3 [3] (setting [10]) is more than 10000 nM. Besides, the Emax is 43.5 ± 12.1% at RXFP3 [3] and 49.4 ± 6.2% on RXFP4 [4]. For the same compound, on RXFP4 [5], the “RXFP4 Activity pEC50” value is reported as “Weak partial agonist (5)”. Besides, the “RXFP3 Activity pEC50” value at RXFP3 [6] is “No activity (4)”.
With `CC[C@H](C)[C@@H]1NC(=O)[C@H](Cc2ccccc2)NC(=O)[C@H](CCC(=O)O)NC(=O)[C@H](CCCNC(=N)N)NC(=O)CNC(=O)[C@@H](NC(=O)[C@H](CC(C)C)NC(=O)[C@H](CCCNC(=N)N)NC(=O)[C@@H](NC(=O)CNC(=O)[C@H](Cc2ccc(O)cc2)NC(=O)[C@@H]2CCCN2C(=O)[C@H](C)NC(=O)[C@H](C)NC(=O)[C@@H](N)CCCNC(=N)N)C(C)C)CSSC[C@H](N)C(=O)N[C@@H]([C@@H](C)O)C(=O)N[C@@H](CC(=O)O)C(=O)NCC(=O)N[C@@H](C)C(=O)N[C@@H](CO)C(=O)N[C@@H](CCSC)C(=O)N[C@@H](CCCCN)C(=O)N[C@@H](CC(=O)O)C(=O)N[C@@H](CC(C)C)C(=O)N[C@@H](CO)C(=O)N[C@@H](C)C(=O)N[C@@H](CC(C)C)C(=O)N[C@H](C(=O)O)CSSC[C@@H](C(=O)N[C@@H](CCCNC(=N)N)C(=O)O)NC(=O)[C@H]([C@@H](C)O)NC(=O)[C@H](Cc2ccccc2)NC(=O)[C@H]([C@@H](C)CC)NC(=O)[C@H](C(C)C)NC(=O)[C@H]([C@@H](C)O)NC(=O)[C@H](CCCNC(=N)N)NC1=O` [Analogue 17] (I: H-RAAPYGVRLCGREFIRTVIFTCR-OH / II: H-CTDGASMKDLSALC-OH; disulfide I:10-II:1, I:22-II:14), the inhibition constant (Ki) came to 40.7 nM at RXFP4 [1] and 19.1 nM on RXFP3 [2]. Moreover, the results for the IC50 against RXFP3 [3] and against RXFP4 [4] were more than 10000 nM and 34.7 nM, respectively. Moreover, the maximal response (Emax) at RXFP3 [3] is 34.8 ± 0.9%; at RXFP4 [4] it was 36 ± 10%. Moreover, the “RXFP4 Activity pEC50” value on RXFP4 [5] is reported as “Weak partial agonist (4)”. Moreover, the “RXFP3 Activity pEC50” value on RXFP3 [6] is recorded as “No activity (3)”.
Consider `CC[C@H](C)[C@@H]1NC(=O)[C@H](Cc2ccccc2)NC(=O)[C@H](CCC(=O)O)NC(=O)[C@H](CC(C)C)NC(=O)CNC(=O)[C@@H](NC(=O)[C@H](CC(C)C)NC(=O)[C@H](CCCNC(=N)N)NC(=O)[C@@H](NC(=O)CNC(=O)[C@H](Cc2ccc(O)cc2)NC(=O)[C@@H]2CCCN2C(=O)[C@H](C)NC(=O)[C@H](C)NC(=O)[C@@H](N)CCCNC(=N)N)C(C)C)CSSC[C@H](N)C(=O)N[C@@H]([C@@H](C)O)C(=O)N[C@@H](CC(=O)O)C(=O)NCC(=O)N[C@@H](C)C(=O)N[C@@H](CO)C(=O)N[C@@H](CCSC)C(=O)N[C@@H](CCCCN)C(=O)N[C@@H](CC(=O)O)C(=O)N[C@@H](CC(C)C)C(=O)N[C@@H](CO)C(=O)N[C@@H](C)C(=O)N[C@@H](CC(C)C)C(=O)N[C@H](C(=O)O)CSSC[C@@H](C(=O)N[C@@H](CCCNC(=N)N)C(=O)O)NC(=O)[C@H]([C@@H](C)O)NC(=O)[C@H](Cc2ccccc2)NC(=O)[C@H]([C@@H](C)CC)NC(=O)[C@H](C(C)C)NC(=O)[C@H](C)NC(=O)[C@H](CCCNC(=N)N)NC1=O` [Analogue 18] (I: H-RAAPYGVRLCGLEFIRAVIFTCR-OH / II: H-CTDGASMKDLSALC-OH; disulfide I:10-II:1, I:22-II:14), for which the inhibition constant Ki at RXFP4 [1] (setting [7]) was determined as 14.8 nM; at RXFP3 [2] (setting [8]), 25.7 nM. For the same compound, the results for the IC50 on RXFP3 [3] (setting [10]) and at RXFP4 [4] (setting [9]) were more than 10000 nM and 214 nM, respectively. Besides, the Emax at RXFP3 [3] came to 47 ± 7.3%; on RXFP4 [4] it was 56.2 ± 11.8%. In addition, at RXFP4 [5], the “RXFP4 Activity pEC50” value is given as “Weak partial agonist (3)”. Moreover, the “RXFP3 Activity pEC50” value on RXFP3 [6] is “No activity (3)”.
